Like-named read-outs stand apart in the source and are kept apart here.
What was measured:
[1] = target: T1, Recombinant human cathepsin K (Homo sapiens, UniProt P43235); design: key: qualitative values of 1 and 0 were used to signify inhibition and lack thereof, respectively; qualitative values of 1 and 0 were used to signify inhibition and lack thereof, respectively; a value of -1 was used to describe the concentration-dependent roles of glycosaminoglycans; details: activity modification matrix; previously known modifiers, data from previous work; cited from earlier work
T1 construct: made in house
T1 sequence (P43235 115-329): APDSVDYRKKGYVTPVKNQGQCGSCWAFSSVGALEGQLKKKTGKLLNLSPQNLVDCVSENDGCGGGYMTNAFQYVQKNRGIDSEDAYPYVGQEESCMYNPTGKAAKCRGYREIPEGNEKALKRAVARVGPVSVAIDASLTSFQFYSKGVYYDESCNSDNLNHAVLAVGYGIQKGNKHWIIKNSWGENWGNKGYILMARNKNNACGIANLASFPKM

[2] = target: T1, Recombinant human cathepsin K; details: cited from earlier work; for stability: ln(sf), sf = ratio of half-lives in the presence and absence of modifier: 37 °C and pH 7.4, data from previous work
[3] = target: T1, Recombinant human cathepsin K; details: cited from earlier work; for Z-FRAMC: geometric mean of residual activities (vA): at 0.1×Km and 10×Km substrate, modifier 10×KA, previously known modifiers, data from previous work
[4] = target: T1, Recombinant human cathepsin K; assay: Azocasein degradation assays; assay type: biochemical; details: for azocasein: fraction of residual enzyme activity: value of 1 equals the activity of unmodified enzyme, activity modification matrix
From the text: Figure 4 Effect of modifiers on the degradation of macromolecular substrates. (A) Effect of increasing concentrations of compounds 1 and 2 on the degradation of calf skin collagen. Molecular mass standards are given in kDa and positions of α, β and γ chains of intact collagen are marked by arrows. (B) Effect of modifiers on azocasein degradation. (C) Effect of glycosaminoglycans and clusterin on azocasein degradation. Two different concentrations of each glycosaminoglycan were used in the experiments (10 µg/ml and 200 µg/ml). Error bars in panels B and C represent the SEM of three experiments. All experiments were performed in 100 mM sodium acetate buffer pH 5.50 containing 1 mM EDTA and 5 mM DTT, as described in detail in the Materials and Methods section. Abbreviations: CPD – compound, CS – chondroitin sulfate, DS – dermatan sulfate, HP – heparin.
Azocasein (Sigma-Aldrich, USA) was dissolved in 100 mM sodium acetate buffer pH 5.50 containing 1 mM EDTA and 5 mM DTT at a concentration of 3 mg/ml. Samples were incubated with 0.1 µM cathepsin K for 30 min at 37°C in the presence of each compound. […] Reactions were stopped by addition of trichloroacetic acid (final concentration 5% v/v), centrifuged, clear supernatants mixed with 0.5 M NaOH and the concentrations of solubilized peptides determined by measuring the absorbance at 440 nm. All experiments were performed in triplicates and appropriate blanks were run to take into account the absorption of azocasein and compounds alone. IC 50 values were determined as described previously.

Substance | collagen: qualitative value [1] | stability: ln(sf), sf = ratio of half-lives in the presence and absence of modifier [2] | Z-FRAMC: geometric mean of residual activities (vA) [3] | Effect on azocasein degradation ([4]; lowest concentration, 10 µg/ml) | azocasein: fraction of residual enzyme activity [4] | Effect on stability of cathepsin K at physiological plasma pH 7.4 [2] | Effect on the hydrolysis of Z-FR↓AMC [3] | Effect on the hydrolysis of Z-FR↓AMC ([3]; listed as CLU) | Effect on azocasein degradation ([4]; glycosaminoglycans at 10 µg/ml and 200 µg/ml, clusterin)
chondroitin sulfate [reference compound] | -1 | -0.24 | 2.40 | ineffective | 0.90 | – | – | – | –
clusterin: extracellular chaperone, stabilizer and liberator of cathepsin K | 0 | 0.79 | 1.00 | – | 0.95 | increase the stability | no effect on enzymatic activity | no modification | marginal inhibitory effect
dermatan sulfate [reference compound] | -1 | -0.15 | 3.18 | – | 0.32 | – | – | – | –
heparin | -1 | 1.69 | 1.55 | – | 0.31 | increase the stability | – | – | –
